Source: US20230192799A1, “CNP Variants and Conjugates Thereof” (BIOMARIN PHARMACEUTICAL INC., priority 2019, published 2023)
Numbered stars: 1 amine (or outer) side, 2 acyl side, 3 side chain; on linkers, the order of the positions; unused ones are H or OH. Bridge positions count the residues as written; N and C are the ends. Side chains are listed from the residue outwards. Peptide text beside a SMILES is read from it. * marks the point of attachment. ξ: configuration not given here. C18 diacid = O=C(O)CCCCCCCCCCCCCCCCC(=O)*; ξγGlu = O=C(O)C(CCC(=O)[*:2])N[*:1]; AEEA = NCCOCCOCC(=O)O

Columns and labels:
[1] = tested on: NPR2+/− rat chondrosarcoma cell model (heterozygous NPR2 knockout cells); test: cGMP stimulation assay in NPR2 mutant RCS cells; assay type: cell-based
Experimental: To determine the effects of CNP on subjects with short stature resulting from NPR2 mutations, cellular models of NPR2 mutations were developed. […] Rat chondrosarcoma (RCS) cells having either a knockout of, or heterozygous loss of function mutations in, the NPR2 gene were made by RNP transfection into RCS cells using 125 ng NPR2 variants or wild-type NPR2 plasmid DNA transfected into RCS or HEK293 cells. Single cell clones were seeded and genotyped by Sanger sequencing.
The NPR2 clones were created by creating insertions and deletions in the first exon of NPR2 in RCS cells. […] NPR2 mutant cells were tested for activity in response to CNP administration by a cGMP stimulation assay using a Catch Point Cyclic-GMP Fluorescent Assay after treatment with 6 nM of Pro-Gly CNP37. RCS (rat chondrosarcoma) cells were seeded at 40,000 cells/well in RCS culture media: DMEM+10% FBS+1× Pen Strep.

[2] = tested on: mice deficient in Nf1 in type II collagen producing cells; details: daily injections; cited from earlier work
[3] = tested on: mouse model of Cardiofaciocutaneous syndrome using a Braf mutation (p.Q241R); details: in vivo; cited from earlier work
[4] = Stability of CNP variants or conjugates in human plasma (LC-MS/MS); assay type: in vitro ADME
Experimental: Stability of different CNP variants or CNP conjugates were tested for stability in human plasma over a 24 hour period. Briefly, a C18 fatty acid was fused to gamma glutamic acid using 2 OEG spacers (see e.g., Lau et al., J. Med. Chem 58:7370-7380, 2015). For the chromatography, Waters UPLC H-Class connected with BEH C18 1.7 um, 2.1×150 mm; Mobile Phase A: 1% DMSO 0.1% Formic Acid in Water; Mobile Phase B: 1% DMSO 0.1% Formic Acid in CAN. Mass Spectrometry was carried out using an AB Sciex QTRAP.
each CNP variant was prepared at 200 nM in Human Plasma Li Heparin and samples Incubated at 37° C. 5% CO2. The reaction was quenched at 0, 1, 2, 4, 8, 24 hours with 0.5M Sodium Citrate pH 4. Plasma proteins were precipitated with 0.2% Formic Acid in MeOH and samples prepared using WCX 96-well uElution plate and analyzed by LC-MS/MS 6500.
Stability of different conjugates was also analyzed at varying conditions. Briefly, the same protocol as above was used at 37° C. (control), 37° C.+0.5M NaCl, 37° C.+protease inhibitors or 4° C.

[5] = Stability of CNP variants by RP-HPLC, 10 days in PBS; assay type: physicochemical; details: for T0, % (% variant detected at T0): T0 (0 days); for T10, % (% variant detected at T10): T10 (10 days) in PBS, pH 7.4, at 37° C.
[6] = tested on: cGMP production in NIH3T3 cells and HEK293 cells; test: cGMP stimulation assay (CatchPoint Cyclic-GMP Fluorescent Assay); assay type: cell-based; details: peptide at T0, 7-point dose curve 100 nM to 0.0064 nM

T0, % (% variant detected at T0) [5] | T10, % (% variant detected at T10) [5] | Compound | other results
– | – | C-type natriuretic peptide [CNP] | rescue of NPR2 signaling ([1]; cell model of NPR2 haploinsufficiency, exogenous CNP): dose-dependent rescue; ERK phosphorylation [2]: decreased ERK phosphorylation; short stature [2]: corrected the short stature; body length [3]: increases in body length
– | – | CC[C@H](C)[C@@H]1NC(=O)[C@H](CCCNC(=N)N)NC(=O)[C@H](CC(=O)O)NC(=O)[C@H](CC(C)C)NC(=O)[C@H](CCCCNC(=O)COCCOCCNC(=O)COCCOCCNC(=O)CCC(NC(=O)CCCCCCCCCCCCCCCCC(=O)O)C(=O)O)NC(=O)[C@H](CC(C)C)NC(=O)CNC(=O)[C@H](Cc2ccccc2)NC(=O)[C@@H](NC(=O)CNC(=O)[C@H](CCCNC(=N)N)NC(=O)[C@H](CO)NC(=O)[C@H](CC(C)C)NC(=O)CNC(=O)[C@H](CCCNC(=N)N)NC(=O)[C@H](CCCNC(=N)N)NC(=O)[C@H](CCC(N)=O)NC(=O)[C@H](C)NC(=O)CNC(=O)[C@H](CCCNC(=N)N)NC(=O)[C@H](Cc2ccc(O)cc2)NC(=O)[C@H](CCCNC(=N)N)NC(=O)[C@H](CCCNC(=N)N)NC(=O)[C@H](C)NC(=O)[C@H](CCC(N)=O)NC(=O)[C@@H]2CCCN2C(=O)[C@H](Cc2c[nH]cn2)NC(=O)[C@H](CCC(=O)O)NC(=O)[C@H](CCC(N)=O)NC(=O)CNC(=O)[C@@H]2CCCN2C(C)=O)CSSC[C@@H](C(=O)O)NC(=O)CNC(=O)[C@H](CC(C)C)NC(=O)CNC(=O)[C@H](CO)NC(=O)[C@H](CCSC)NC(=O)[C@H](CO)NC(=O)CNC1=O (stereo partly drawn) [lipidated conjugate] (Ac-PGQEHPQARRYRGAQRRGLSRGCFGLK([AEEA-AEEA-ξγGlu-C18 diacid])LDRIGSMSGLGC-OH; disulfide 23-39) | stability in plasma ([4]; human plasma, 200 nM, 37° C., over 24 hrs (FIG. 2)): improved stability in plasma compared to PEGylated or non-conjugated peptides
77% | 53% | PGQEHPNARRYRGANRRGLSRGCFGLKLDRIGSMSGLGC [CNP-7] | –
76.7% | 39.5% | CC[C@H](C)[C@@H]1NC(=O)[C@H](CCCNC(=N)N)NC(=O)[C@H](CC(=O)O)NC(=O)[C@H](CC(C)C)NC(=O)[C@H](CCCCN)NC(=O)[C@H](CC(C)C)NC(=O)CNC(=O)[C@H](Cc2ccccc2)NC(=O)[C@@H](NC(=O)CNC(=O)[C@H](CCCCN)NC(=O)[C@H](CO)NC(=O)[C@H](CC(C)C)NC(=O)CNC(=O)[C@H](CCCCN)NC(=O)[C@H](CCCCN)NC(=O)[C@H](CC(N)=O)NC(=O)[C@H](C)NC(=O)CNC(=O)[C@H](CCCCN)NC(=O)[C@H](Cc2ccc(O)cc2)NC(=O)[C@H](CCCCN)NC(=O)[C@H](CCCNC(=N)N)NC(=O)[C@H](C)NC(=O)[C@H](CC(N)=O)NC(=O)[C@@H]2CCCN2C(=O)[C@H](Cc2c[nH]cn2)NC(=O)[C@H](CCC(=O)O)NC(=O)[C@H](CCC(N)=O)NC(=O)CNC(=O)[C@@H]2CCCN2)CSSC[C@@H](C(=O)O)NC(=O)CNC(=O)[C@H](CC(C)C)NC(=O)CNC(=O)[C@H](CO)NC(=O)[C@H](CCSC)NC(=O)[C@H](CO)NC(=O)CNC1=O [Pro-Gly CNP37] | EC50 [6]: 1.7 nM; stability in human plasma at varying conditions ([4]; 37° C. (control), 37° C.+0.5M NaCl, 37° C.+protease inhibitors or 4° C. (FIG. 3)): greater stability compared to other variants; proteolysis in human plasma ([4]; human plasma, varying conditions (FIG. 3)): prone to proteolysis; cGMP readout ([1]; NPR2+/− rat chondrosarcoma cells, 6 nM of peptide (FIG. 4)): rescues cGMP readout
83% | 47% | PGQEHPNARKYKGANKKGLSKGCFGLKLDRIGSMSGLGC [CNP-5] | –
91% | 88% | PGQEHPQARRYRGAQRRGLSRGCFGLKLDRIGSMSGLGC [CNP-8] | –
90% | 58% | PGQEHPNARRYRGANRRGLSRGCFGLKLDRIGSMSGLGC [CNP-6] | –
92% | 77% | PGQEHPQARRYRGAQRRGLSRGCFGLKLDRIGSMSGLGC [CNP-9] | –
